Among the data in patent US10577378B2, “EIF4A-inhibiting compounds and methods related thereto” (eFFECTOR Therapeutics, Inc., priority 2015, dated 2020) are IC50 values, retold here.

The subject of the test is MDA-MB-231 human breast cancer cells. Nature of the test: Cell proliferation assay (CellTiter-Glo, 72 hours treatment). Type of test: cell-based. Conditions: Homo sapiens; MDA-MB-231 cells, 72 hours at 37° C., CellTiter-Glo; read-out: MDA-MB-231 cell proliferation assay (IC50). Put shortly:
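IC50 categories: under 100 nM +++, 100–1000 nM ++, above 1000 nM +, derived by sigmoidal curve fitting of CellTiter-Glo luminescence. Cells plated at 2,500 per well, dosed the following day and exposed 72 h at 37 °C versus DMSO control.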

Structures are written as SMILES.

Turning to `COc1cncc2c1[C@]1(O)[C@@H](CNCc3ccncc3)[C@H](CO)[C@@H](c3ccccc3)[C@]1(c1ccc(C#N)cc1)O2` (racemic) [188F, Rac-4-((4bR,5R,6R,7S,7aR)-4b-hydroxy-6-(hydroxymethyl)-4-methoxy-7-phenyl-5-(((pyridin-4-ylmethyl)amino)methyl)-4b,5,6,7-tetrahydro-7aH-cyclopenta[4,5]furo[2,3-c]pyridin-7a-yl)benzonitrile], the IC50 was less than 100 nM.

Take `O=C1N[C@H]2[C@@H](O1)[C@@]1(O)c3ncc(Cl)cc3O[C@@]1(c1ccc(Br)cc1)[C@@H]2c1ccccc1` (racemic) [53F, Rac-(3aR,3bS,8aR,9R,9aR)-8a-(4-bromophenyl)-6-chloro-3b-hydroxy-9-phenyl-1,3a,3b,8a,9,9a-hexahydro-2H-oxazolo[4″,5″:4′,5′]cyclopenta[1′,2′:4,5]furo[3,2-b]pyridin-2-one]: the IC50 is less than 100 nM.
